Reference: PubChem BioAssay (NCI)
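Protocol summary: plate cells (96-well), add compound at 5 concentrations, incubate 48 h, interpolate endpoints linearly. Abbreviation: GI50, concentration required for 50% inhibition of growth. Definition used: TGI = concentration required for complete inhibition of growth.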 Calls of active or inactive are those of the source. Rule as the data show it: active = GI50 below about 0.43 µM; inactive = the rest.

Legend:
Assay in all cases: DTP human tumour cell line panel, 48 h
RXF 393 renal = tested on: RXF 393 renal
SR leukemia = tested on: SR leukemia
HOP-92 NSCLC = tested on: HOP-92 NSCLC
A498 renal = tested on: A498 renal
EKVX NSCLC = tested on: EKVX NSCLC
IGROV1 ovarian = tested on: IGROV1 ovarian
NCI-H522 lung = tested on: NCI-H522 lung
786-0 renal = tested on: 786-0 renal
SN12C renal = tested on: SN12C renal

Structure (SMILES) | GI50 (RXF 393 renal) [µM] | TGI (RXF 393 renal) [µM] | GI50 (SR leukemia) [µM] | TGI (SR leukemia) [µM] | GI50 (HOP-92 NSCLC) [µM] | TGI (HOP-92 NSCLC) [µM] | GI50 (A498 renal) [µM] | TGI (A498 renal) [µM] | GI50 (EKVX NSCLC) [µM] | TGI (EKVX NSCLC) [µM] | GI50 (IGROV1 ovarian) [µM] | TGI (IGROV1 ovarian) [µM] | GI50 (NCI-H522 lung) [µM] | TGI (NCI-H522 lung) [µM] | GI50 (786-0 renal) [µM] | TGI (786-0 renal) [µM] | GI50 (SN12C renal) [µM] | TGI (SN12C renal) [µM] | outcome (A498 renal)
O=C(O)CCNC1CCCCC1 | > 100 | > 100 | > 100 | > 100 | > 100 | > 100 | > 100 | > 100 | > 100 | > 100 | > 100 | > 100 | > 100 | > 100 | > 100 | > 100 | > 100 | > 100 | –
O=C(CC1C(=O)NN(c2ccc(Br)cc2)C1=O)c1cc(O)ccc1O (centres undefined) | > 50 | > 50 | > 50 | > 50 | 11.6 | > 50 | > 50 | > 50 | 27.8 | > 50 | 40 | > 50 | 18.5 | > 50 | 22.4 | > 50 | 13.6 | 40.3 | –
Nc1nccc(-c2c(-c3ccc(F)cc3)ncn2C2CCC(O)CC2)n1 (centres undefined) | 4.77 | > 23.8 | 12.5 | > 25 | 1.62 | 17.3 | 3.29 | > 25 | 8.57 | > 25 | 4.32 | 24.8 | 5.49 | > 23.1 | 10.7 | > 25 | 6.72 | > 25 | –
COc1ccc2c(c1)C(=O)c1c-2n(CCCn2ccnc2)c(=O)c2cc([N+](=O)[O-])ccc12 | < 0.0107 | – | < 0.01 | – | < 0.0397 | – | < 0.01 | 0.184 | 0.0646 | > 50.9 | < 0.01 | 25.2 | < 0.0134 | 3.99 | < 0.01 | – | < 0.01 | > 100 | –
C#CCNC(=O)c1cccc2c1cc(C)n2-c1nc2c(c(NCc3ccccc3)n1)CCCC2 | 0.0122 | 0.0406 | 0.0156 | 0.165 | 0.0239 | 0.0669 | 0.0218 | 0.0591 | 0.028 | 0.112 | 0.0276 | 0.102 | 0.0251 | 0.0808 | 0.0292 | 0.0788 | 0.0204 | 0.0689 | –
O=C(CCc1nnc2sc(-c3ccc(Cl)cc3Cl)nn12)c1nc2ccccc2[nH]1 | 0.394 | 1.04 | 0.301 | – | 0.391 | 1.86 | 0.845 | 2.26 | 1.93 | 5.92 | 0.953 | 6.35 | 0.755 | 2.18 | 1.48 | 2.89 | 1.41 | 4.22 | –
Nc1nc(N(Cc2ccccc2)c2ccccc2)c2cn[nH]c2n1 | 2.93 | 22 | 1.3 | 5.64 | 1.42 | > 100 | 3.03 | 9.23 | 3.57 | > 100 | 4.16 | > 100 | 2.62 | > 100 | 4.63 | > 100 | 5.71 | > 100 | –
O=C(O)C(=Cc1ccc(-c2ccccc2)cc1)C(=O)O | – | 14.5 | – | 14.7 | – | > 68.6 | – | 40 | – | > 100 | – | > 100 | – | 22.8 | – | 41.4 | – | 35.1 | –
Cc1cc(Cl)cc2c1NC(=O)C2(O)CC(=O)c1ccco1 (centres undefined) | – | > 100 | – | 64.7 | – | > 100 | – | > 100 | – | > 100 | – | > 100 | – | > 100 | – | > 100 | – | > 100 | –
COC(=O)Nc1nc2ccc(Oc3ccc(NC(=O)Nc4cc(C(F)(F)F)ccc4F)cc3)cc2s1 | > 25 | > 25 | 5.66 | > 25 | 0.288 | > 25 | – | > 25 | > 14.7 | > 25 | > 25 | > 25 | > 25 | > 25 | > 25 | > 25 | > 17.3 | > 25 | –
CC[C@@]1(c2ccccc2)C2=C(CC(C)(C)CC2=O)Nc2[nH]ncc21 | > 100 | > 100 | > 100 | > 100 | > 100 | > 100 | 16.7 | 56.3 | > 100 | > 100 | > 100 | > 100 | > 100 | > 100 | > 100 | > 100 | > 100 | > 100 | –
O=S(=O)(NC1=NCCN1C(=S)SN1CCn2c1nsc2=S)c1cccc(Cl)c1 | 4.04 | 21.6 | 4.89 | 50.7 | 25.4 | 71.3 | 34.3 | 81.5 | 38.7 | > 100 | 12.4 | 36.8 | 5.58 | 18.4 | 19.9 | 55.3 | 14.9 | 40.6 | –
COc1cc2ncn(-c3cc(OCc4cccs4)c(C(N)=O)s3)c2cc1OC | 1.31 | > 15.7 | 1.48 | > 25 | 4.38 | > 22 | 1.25 | 16.9 | 7.93 | > 25 | 2.75 | > 25 | 0.924 | > 12.5 | 4.86 | > 25 | 2.8 | > 25 | –
CCCCCCCC[C@@H](O)CC(=O)N[C@@H](CC(N)=O)C(=O)N[C@@H](CCC(N)=O)C(=O)N[C@@H](CC(=O)c1cc(C)cc(O)c1C(=O)c1c(O)cccc1O)CC(C)C | 0.214 | 0.713 | 0.112 | > 100 | 0.201 | 0.939 | 2.29 | 7.44 | 3.35 | 75.5 | 0.261 | > 100 | 0.228 | 0.815 | 0.507 | 9.84 | 2.13 | 15.8 | –
O=C1c2cccc([N+](=O)[O-])c2C(=O)N1c1ncn[nH]1 | – | > 100 | – | > 100 | – | 52.6 | – | > 100 | – | > 100 | – | > 100 | – | > 100 | – | > 100 | – | > 100 | –
Cc1cc(-c2cnn3c(NCC4CC(C)(O)C4)cc(Oc4cccnc4)nc23)ccc1C(=O)NC1CC1 (centres undefined) | 1.55 | > 100 | 0.525 | > 100 | 6.42 | > 100 | 0.435 | > 100 | 3.76 | > 100 | 0.992 | > 100 | 5.08 | > 100 | 3.71 | > 100 | 2.96 | > 100 | –
COc1ccc(N2C(=O)/C(=C/c3ccc(N(CCC#N)CCC#N)cc3C)N=C2c2cc([N+](=O)[O-])ccc2Cl)cc1 | – | > 46.4 | – | 35.4 | – | > 100 | – | > 56.2 | – | > 46.4 | – | > 63.1 | – | 12.5 | – | 43.7 | – | > 56.2 | –
CC/C=C\C[C@@H](O)C/C=C1/C(=O)C=C[C@H]1C/C=C\CCCC(=O)OC | 1.85 | 3.55 | 0.686 | 4 | 4.54 | 15.2 | 14.6 | 28.1 | 9.14 | 21.1 | 3.31 | 12.6 | 1.65 | 3.97 | 3.29 | 11.5 | 4.64 | 19.3 | –
Cc1c(C(=O)C/C(=N/NC(=O)C[N+](C)(C)C)C(=O)Nc2ccc(Cl)cc2)[n+](=O)c2ccccc2n1O | – | > 100 | – | > 100 | – | > 100 | – | > 100 | – | > 100 | – | > 100 | – | > 100 | – | > 100 | – | > 100 | –
O=C(CC1(O)C(=O)Nc2ccccc21)c1ccncc1 (centres undefined) | – | > 100 | – | > 100 | – | > 100 | – | > 100 | – | > 100 | – | > 100 | – | > 100 | – | > 100 | – | > 100 | –
COc1ccc(C(=O)C#Cc2cnc(OC)nc2OC)cc1 | 26800 | – | 12500 | 43100 | 19700 | – | – | 35.1 | 23700 | – | 20300 | – | 12700 | – | 22000 | – | – | 2.63 | inactive
O=C(O)c1nn(-c2ccccc2-c2n[nH]c(=O)[nH]c2=O)c(=O)[nH]c1=O | – | > 100 | – | > 100 | – | > 100 | – | > 100 | – | > 100 | – | > 100 | – | > 100 | – | > 100 | – | > 100 | –
CC1CN1C(=O)NCCCCCCNC(=O)N1CC1C (centres undefined) | – | > 100 | – | 60.2 | – | > 100 | – | > 100 | – | > 100 | – | > 100 | – | > 100 | – | > 100 | – | > 100 | –
